Assays:
α7+/− myotubes = assay: Quantification of myotube hypertrophy; type: cell-based, mouse
Protocol: (§1) α7^+/− myogenic cells were cultured on 1% gelatin-coated plastic plates in Ham's F-10 growth medium (20% FBS, 0.5% chick embryo extract, 5 ng/ml bFGF, 2 mM glutamine, 100 U/ml penicillin and 100 μg/ml streptomycin). After six passages, cells were grown in DMEM containing 20% FBS, 0.5% chick embryo extract, 2 mM glutamine, 100 U/ml penicillin and 100 μg/ml streptomycin. Differentiation was induced by switching the medium to DMEM containing 2% horse serum and antibiotics when cells attained 90% confluence. After 48 hours of differentiation, 2 mM VPA was added and supplied fresh every 24 hours. Wortmannin was used at 100 nM and added fresh every 24 hours.
[…] The cells were stained with anti-myosin heavy chain antibody (MF-20, 1:3 in 1% BSA in PBS) and FITC-conjugated donkey anti-mouse secondary antibody (1:200 in 1% BSA in PBS) for 1 hour each, and mounted in Vectashield with DAPI (Vector Laboratories, Burlingame, Calif.). Micrographs of ten fields were taken for VPA-treated and control myotubes using a Leica DMRXA2 microscope (Leica Microsystems, Germany), AxioCam digital camera (Zeiss Inc., Thorwood, N.Y.) and Openlab software (Improvision, Lexington, Mass.). Areas of myosin heavy chain positive myotubes were measured using Openlab software and the numbers of nuclei in each myotube were counted.
To test whether Akt activation by VPA in α7^+/− myotubes is dependent on PI3K, α7^+/− cells were differentiated for 48 hours and treated for 72 hours with 2 mM VPA with or without 100 nM Wortmannin. Fresh drugs were added every 24 hours. Phase-contrast micrographs of the cultures were captured at the end of 72 hours of treatment. To determine status of Akt activation in the cultures, α7^+/− myotubes were treated as above and protein extracts were made at the end of 72 hours of treatment using a 2% Triton X-100 extraction buffer (see below). Immunoblotting for phospho- and total Akt were done as detailed below.

[1] = mice; cited from earlier work
ERK = assay: Western blotting of activated ERK in α7+/− myotubes; type: cell-based, mouse; details: VPA treated myotubes
Protocol: as §1
Cell lysates of differentiating cells on 60 mm dishes were prepared as follows: the cells were washed twice with PBS and 200 μl Triton X-100 lysis buffer (2% Triton X-100, 20 mM Tris-Cl, pH 7.4, 150 mM NaCl, 1 mM EDTA, 1 mM EGTA, 2.5 mM NaPPi, 1 mM β-glycerophosphate, 1 mM sodium vanadate, 1:200 Protease Inhibitor Cocktail (EMD Chemicals, San Diego, Calif.) and 1 mM PMSF) were added. […] Protein concentrations were determined by the Bradford assay. […] The supernatants were collected and protein concentrations were determined spectrophotometrically at OD260 and OD280. […] ImageQuant analysis software (Molecular Dynamics, Sunnyvale, Calif.) was used to quantify band intensity.

mdx/utrn−/− mice [2] = assay: Quantification of Evan's blue dye uptake in quadriceps; type: in vivo, mouse; details: 240 mg/kg i.p. twice daily for 5 weeks
Protocol: mdx/utrn−/− mice lack both dystrophin and utrophin, and were bred and genotyped as reported in Burkin, et al., Enhanced expression of the alpha 7 beta 1 integrin reduces muscular dystrophy and restores viability in dystrophic mice, J. Cell Biol. 152:1207-18 (2001). 240 mg/kg body weight of VPA was injected intraperitoneally twice daily into mdx/utrn^−/− mice (n=9) starting at 3 weeks of age, for a period of 5 weeks. Control mice were injected with saline (n=9). Body-weights were determined daily. On the 35th day of injection of VPA, mice were injected intraperitoneally with 100 mg/kg body weight of Evan's blue dye. After 24 hours, the quadriceps muscles were collected, frozen in liquid nitrogen-cooled isopentane and stored at −80° C. 8 μm cryosections of quadriceps were fixed in ice-cold methanol for 1 minute and washed in PBS three times for 5 minutes each. To delineate muscle fibers, the sections were incubated for 10 minutes at room temperature in FITC-conjugated wheat-germ agglutinin (WGA) (Invitrogen) diluted 1:500 in PBS. The sections were washed three times in PBS, 5 minutes each time, and the percentage of Evan's blue dye positive fibers in three sections taken 40 μm apart were counted (approximately 5000 fibers total) for each mouse.

[3] = test system: CD8 positive cytotoxic T-cells; assay: Quantification of CD8 positive cells in muscle; type: in vivo, mouse; details: 240 mg/kg i.p. twice daily for 5 weeks, quadriceps
Protocol: 240 mg/kg body weight of VPA was injected intraperitoneally twice daily into mdx/utrn^−/− mice (n=9) starting at 3 weeks of age, for a period of 5 weeks. Control mice were injected with saline (n=9). Body-weights were determined daily. 8 μm thick cryosections of the quadriceps muscles of saline and VPA injected mice were made. Cytotoxic T-cells were detected with a FITC-labeled rat anti-mouse CD8a antibody (BD Pharmingen, San Diego, Calif.) as follows: the sections were fixed in 4% paraformaldehyde for 5 minutes, washed in PBS three times for 5 minutes each, blocked with 5% BSA/PBS for 1 hour, anti-CD8 antibody added at 1:1000 dilution for 1 hour and washed in 1% BSA/PBS three times for 5 minutes each. The sections were mounted in Vectashield containing DAPI (Vector Laboratories). The number of CD8 positive cells and the total number of nuclei in the same field were counted in ten random fields for each mouse. The ratio of the number of CD positive cells to the total number of nuclei were calculated, averaged and plotted for the saline and VPA treated groups.

mdx/utrn−/− mice [4] = assay: Contracture assay in mdx/utrn−/− mice; type: in vivo, mouse; details: 35th day of treatment
Protocol: mdx/utrn−/− mice lack both dystrophin and utrophin, and were bred and genotyped as reported in Burkin, et al., Enhanced expression of the alpha 7 beta 1 integrin reduces muscular dystrophy and restores viability in dystrophic mice, J. Cell Biol. 152:1207-18 (2001). 240 mg/kg body weight of VPA was injected intraperitoneally twice daily into mdx/utrn^−/− mice (n=9) starting at 3 weeks of age, for a period of 5 weeks. Control mice were injected with saline (n=9). Body-weights were determined daily. On the 35th day of treatment, mdx/utrn^−/− mice injected with saline (n=9) or VPA (n=9) were tested for contractures in their hind limbs as follows: mice were placed on a flat table and were lifted by their tails so that their fore-limbs touched the table-surface and their hindquarters were in air. The positions of the hind-limbs were photographed. Normally, mice in this position extend their hind-limbs. The presence of contractures in dystrophic mice prevents full extension.

## CCCC(CCC)C(=O)O [VPA, valproic acid]
α7+/− myotubes; 2 mM VPA
  number of nuclei per myotube compared to untreated controls: greater numbers of nuclei per myotube
α7+/− myotubes; 2 mM VPA, 72 hours
  myotube area per nucleus, greater than control: 1.6 fold
  myotube size compared to controls (micrographs): larger compared to controls
α7+/− myotubes; 30 mM VPA for 1 hour, observed 72 hours later
  myotube size compared to controls after 1 hour exposure: larger compared to controls
[1]
  half-life: about 45 minutes
ERK
  levels of activated ERK: significantly lower levels
mdx/utrn−/− mice [2]
  fewer damaged (Evans blue positive) fibers than saline: approximately 2 fold
[3]
  decrease of CD8 positive cytotoxic T-cell content: approximately 2.1 fold
mdx/utrn−/− mice [4]; 240 mg/kg i.p. twice daily, n=9
  proportion of mice with contractures: 11.1%
mdx/utrn−/− mice [4]
  proportion with contractures, saline-injected group higher compared to VPA-injected group: approximately 4 fold

From US20120003191A1, “VALPROIC ACID, DERIVATIVES, ANALOGUES, AND COMPOSITIONS INCLUDING SAME AND METHODS FOR THEIR THERAPEUTIC USE” (priority 2009, published 2012)
